Earlier results on 1 compound are cited in PubChem BioAssay AID1259409 (Chemical Carcinogenesis Research Information System (CCRIS), 2018).

The subject of this series is rodent chemically induced tumor inhibition, incidence and multiplicity. Description: CCRIS tumor inhibitor studies. To be noted: Dose [Inhibitor]: 0, Route [Inhibitor]: ORAL, Promoter: NONE USED.

Consider `CC(C)=CCC/C(C)=C/C=C/C(C)=C/C=C/C(C)=C/C=C/C=C(C)/C=C/C=C(C)/C=C/C=C(\C)CCC=C(C)C`, for which the “tumour outcome (control, treated, inhibition, significance)” value reads like this: (Carcinogen: DIETHYLNITROSAMINE, 55-18-5, N-METHYL-N-NITROSOUREA, 684-93-5, 1,2-DIMETHYLHYDRAZINE, 306-37-6, Carcinogen: DIETHYLNITROSAMINE, 55-18-5, N-METHYL-N-NITROSOUREA, 684-93-5, 1,2-DIMETHYLHYDRAZINE, 306-37-6, 25 PPM IN DRINKING WATER FOR 21 WK BEGINNING 2 WK POST CARCINOGEN TREATMENT (STUDY DURATION: 32 WK), Species: MOUSE, Strain/Sex: B6C3F1/MALE, Target Tissue: Type of Lesion: LUNG: ADENOMA, Dose [Carcinogen]: 10 MG/KG BW DEN ON DAYS 11 AND 32 OF AGE, 120 PPM MNU IN DRINKING WATER FROM WKS 4 TO 9, 20 MG/KG BW DMH 2/WK FOR 5 WK) 11/16 (69%), 11/16 (69%), 0%, not significant; (Carcinogen: DIETHYLNITROSAMINE, 55-18-5, N-METHYL-N-NITROSOUREA, 684-93-5, 1,2-DIMETHYLHYDRAZINE, 306-37-6, Carcinogen: DIETHYLNITROSAMINE, 55-18-5, N-METHYL-N-NITROSOUREA, 684-93-5, 1,2-DIMETHYLHYDRAZINE, 306-37-6, 25 PPM IN DRINKING WATER FOR 21 WK BEGINNING 2 WK POST CARCINOGEN TREATMENT (STUDY DURATION: 32 WK), Species: MOUSE, Strain/Sex: B6C3F1/MALE, Target Tissue: Type of Lesion: LUNG: CARCINOMA, Dose [Carcinogen]: 10 MG/KG BW DEN ON DAYS 11 AND 32 OF AGE, 120 PPM MNU IN DRINKING WATER FROM WKS 4 TO 9, 20 MG/KG BW DMH 2/WK FOR 5 WK) 1/16 (6%), 2/16 (13%), -116%, not significant; (Carcinogen: DIETHYLNITROSAMINE, 55-18-5, N-METHYL-N-NITROSOUREA, 684-93-5, 1,2-DIMETHYLHYDRAZINE, 306-37-6, Carcinogen: DIETHYLNITROSAMINE, 55-18-5, N-METHYL-N-NITROSOUREA, 684-93-5, 1,2-DIMETHYLHYDRAZINE, 306-37-6, 50 PPM IN DRINKING WATER FOR 21 WK BEGINNING 2 WK POST CARCINOGEN TREATMENT (STUDY DURATION: 32 WK), Species: MOUSE, Strain/Sex: B6C3F1/FEMALE, Target Tissue: Type of Lesion: LUNG: ADENOMA, Dose [Carcinogen]: 10 MG/KG BW DEN ON DAYS 11 AND 32 OF AGE, 120 PPM MNU IN DRINKING WATER FROM WKS 4 TO 9, 20 MG/KG BW DMH 2/WK FOR 5 WK) 6/16 (38%), 8/15 (53%), -39%, not significant; (Carcinogen: DIETHYLNITROSAMINE, 55-18-5, N-METHYL-N-NITROSOUREA, 684-93-5, 1,2-DIMETHYLHYDRAZINE, 306-37-6, Carcinogen: DIETHYLNITROSAMINE, 55-18-5, N-METHYL-N-NITROSOUREA, 684-93-5, 1,2-DIMETHYLHYDRAZINE, 306-37-6, 50 PPM IN DRINKING WATER FOR 21 WK BEGINNING 2 WK POST CARCINOGEN TREATMENT (STUDY DURATION: 32 WK), Species: MOUSE, Strain/Sex: B6C3F1/MALE, Target Tissue: Type of Lesion: LUNG: ADENOMA, Dose [Carcinogen]: 10 MG/KG BW DEN ON DAYS 11 AND 32 OF AGE, 120 PPM MNU IN DRINKING WATER FROM WKS 4 TO 9, 20 MG/KG BW DMH 2/WK FOR 5 WK) 11/16 (69%), 3/16 (19%), 72%, p<0.02; (Carcinogen: DIETHYLNITROSAMINE, 55-18-5, N-METHYL-N-NITROSOUREA, 684-93-5, 1,2-DIMETHYLHYDRAZINE, 306-37-6, Carcinogen: DIETHYLNITROSAMINE, 55-18-5, N-METHYL-N-NITROSOUREA, 684-93-5, 1,2-DIMETHYLHYDRAZINE, 306-37-6, 50 PPM IN DRINKING WATER FOR 21 WK BEGINNING 2 WK POST CARCINOGEN TREATMENT (STUDY DURATION: 32 WK), Species: MOUSE, Strain/Sex: B6C3F1/MALE, Target Tissue: Type of Lesion: LUNG: CARCINOMA, Dose [Carcinogen]: 10 MG/KG BW DEN ON DAYS 11 AND 32 OF AGE, 120 PPM MNU IN DRINKING WATER FROM WKS 4 TO 9, 20 MG/KG BW DMH 2/WK FOR 5 WK) 1/16 (6%), 0/16 (0%), 100%, not significant; (Carcinogen: N-BUTYL-N-(4-HYDROXYBUTYL)NITROSAMINE, 3817-11-6, 0.0025% IN DRINKING WATER FOR 12 WK BEGINNING POST CARCINOGEN TREATMENT (STUDY DURATION: 20 WK), Species: RAT, Strain/Sex: F344/MALE, Target Tissue: Type of Lesion: URINARY BLADDER: TRANSITIONAL CELL CARCINOMA, Dose [Carcinogen]: 0.05% IN DRINKING WATER FOR 8 WK) 10/12 (83%), 10/12 (83%), 0%, not significant. For the same compound, the “tumour outcome (control, treated, inhibition, significance)” value reads like this: (Carcinogen: N-METHYLNITROSAUREA, 684-93-5, 17 PPM IN TOMATO JUICE AND WATER (1:2) AS DRINKING FLUID FOR DURATION OF STUDY (STUDY DURATION: 35 WK), Species: RAT, Strain/Sex: F344/FEMALE, Target Tissue: Type of Lesion: COLON: TUMOR, Dose [Carcinogen]: 0.4% (0.5 ML) AQUEOUS SOLUTION 3/WK FOR 3 WK) 13/24 (54%), 5/24 (21%), 61%, p<0.02; (Carcinogen: N-METHYLNITROSOUREA, 684-93-5, 3.4 PPM IN TOMATO JUICE AND WATER (1:14) AS DRINKING FLUID FOR DURATION OF STUDY (STUDY DURATION: 35 WK), Species: RAT, Strain/Sex: F344/FEMALE, Target Tissue: Type of Lesion: COLON: TUMOR, Dose [Carcinogen]: 0.8% (0.5 ML) AQUEOUS SOLUTION 3/WK FOR 3 WKS) 21/25 (84%), 18/25 (72%), 14%, not significant; (Carcinogen: N-METHYLNITROSOUREA, 684-93-5, 17 PPM IN DRINKING WATER FOR DURATION OF STUDY (STUDY DURATION: 35 WK), Species: RAT, Strain/Sex: F344/FEMALE, Target Tissue: Type of Lesion: COLON: TUMOR, Dose [Carcinogen]: 0.4% (0.5 ML) AQUEOUS SOLUTION 3/WK FOR 3 WK) 13/24 (54%), 8/24 (33%), 39%, not significant; (Carcinogen: N-METHYLNITROSOUREA, 684-93-5, 17 PPM IN TOMATO JUICE AND WATER (1:2) AS DRINKING FLUID FOR DURATION OF STUDY (STUDY DURATION: 35 WK), Species: RAT, Strain/Sex: F344/FEMALE, Target Tissue: Type of Lesion: COLON: TUMOR, Dose [Carcinogen]: 0.8% (0.5 ML) AQUEOUS SOLUTION 3/WK FOR 3 WK) 21/25 (84%), 10/25 (40%), 52%, p<0.01.
